Measured values: patent US20230357099A1, “PYRAZOLO [3,4-B] PYRIDINE-4-CARBOXAMIDE NITRIFICATION INHIBITOR” (EUROCHEM ANTWERPTEN, priority 2020, published 2023)

Legend:
[1] = tested on: agricultural soils (Moorslede and Sint-Laureins); experiment: Greenhouse gas measurements from fertilized soil
Procedure: Two agricultural soils coming from fields in Moorslede and Sint-Laureins were used. Screw top vials were filled with 10 g soil. Vials were sealed with Parafilm and preincubated at 21° C. in the dark for 5 days. After pre-incubation, vials were ventilated using a fan. Then 100 µL of a 1 mM compound solution (10 % DMSO) was added, immediately followed by the addition of 100 µL 200 mM NH4Cl. Vials were closed gastight and 5 mL synthetic air was added to the headspace using a plastic syringe, followed by the transfer of 5 mL headspace to an evacuated 3 mL exetainer. Vials were incubated at 21° C. in the dark and background NO concentration was noted. At each sampling timepoint, 5 mL synthetic air was added again to the headspace using a plastic syringe, again followed by the transfer of 5 mL headspace to an evacuated 3 mL exetainer. Vials were ventilated and closed again, and new gas samples were transferred to exetainers like before. N2O in the exetainers were measured via gas chromatography (GC-14 B (Schimadzu) equipped with Haysep Q columns (same spec) and an ECD detector, He at c.a. 20 mL min, 70° C.). The CO2 and CH4 concentration in the 3 mL exetainer vials was measured using a GC (Trace-GC, Interscience) equipped with Haysep Q columns (80-100, ⅛″ divided in 2 part 0.25 and 2.0 m connected with a 6 port valve to allow backflush of water vapor) and a FID (CH4) and TCD (CO2). Carrier gas was He c.a. 20 mL/min kept at 90° C. NO concentration was measured directly by connecting a chemiluminescence NO detector (CLD 77 AM, eco physics) directly to the headspace using a needle.

[2] = tested on: Candidatus Nitrospira kreftii; experiment: Nitrification inhibition in Candidatus Nitrospira kreftii; type: cell-based; details: concentration of 6.25 µM
Procedure: Candidatus Nitrospira kreftii is a high (90%) enrichment of novel comammox species. To quantify nitrification inhibition in Ca. Nitrospira kreftii, a homogenous sample was taken from the bioreactor, washed and resuspended in sterile NOB mineral salts medium supplemented with (per liter) 1 mL of a trace element stock solution composed of NTA (15 g/L), ZnSO4 · 7H2O (0.43 g/L), CoCl2 · 6H2O (0.24 g/L), MnCl2 · 4H2O (0.99 g/L), CuSO4 · 5H2O (0.25 g/L), Na2MoO4 · 2H2O (0.22 g/L), NiCl2 · 6H2O (0.19 g/L), NaSeO4·10H2O (0.021 g/L), […] (0.014 g/L), CeCl·6H2O (0.24 g/L) and 1 mL of an iron stock solution composed of NTA (10 g/L) and FeSO4 (5 g/L). The final ammonium concentration was 200 µM.
To increase the nitrification rate, the cell density was increased 5 times via centrifugation. For homogenous distribution of the flocs, Ca. Nitrospira kreftii was continuously stirred during distribution with a multichannel pipet in the 96-well plates. […]
Ammonium concentrations were measured fluorescently via a modified orthophatal-dialdehyde assay. Nitrite and nitrate concentrations were determined consecutively with a spectrophotometer (at 540 nm): for nitrite, after addition of 100 µL Griess reagent to 100 µL sample (10 min incubation at room temperature) and for nitrate, subsequent to secondary addition of 27 µL of a saturated VCl3 solution in HCl (30 min incubation at 60° C.).

CC(C)c1cc(C(=O)N2CCSCC2)c2cnn(C(C)C)c2n1 [Example 2]
N2O emissions compared to the DMSO control (in words) ([1]; Moorslede soil): strongly reduced the emissions
Cumulative emission at indicated timepoint [ppb], N2O, 4 h ([1]; Moorslede soil): 119 ppb
Cumulative emission at indicated timepoint [ppb], N2O, 24 h ([1]; Moorslede soil): 834 ppb
Cumulative emission at indicated timepoint [ppb], N2O, 48 h ([1]; Moorslede soil): 1616 ppb
Cumulative emission at indicated timepoint [ppb], N2O, 72 h ([1]; Moorslede soil): 1875 ppb
Cumulative emission at indicated timepoint [ppb], N2O, 99 h ([1]; Moorslede soil): 1875 ppb
Cumulative emission at indicated timepoint [ppb], NO, 4 h ([1]; Moorslede soil): 256 ppb
Cumulative emission at indicated timepoint [ppb], NO, 24 h ([1]; Moorslede soil): 611 ppb
Cumulative emission at indicated timepoint [ppb], NO, 48 h ([1]; Moorslede soil): 1020 ppb
Cumulative emission at indicated timepoint [ppb], NO, 72 h ([1]; Moorslede soil): 1189 ppb
Cumulative emission at indicated timepoint [ppb], NO, 99 h ([1]; Moorslede soil): 1183 ppb
NO emissions compared to the DMSO or DMP control (in words) ([1]; Sint-Laureins soil): reduce NO emissions
Cumulative emission at indicated timepoint [ppb], N2O, 4 h ([1]; Sint-Laureins soil): 33 ppb
Cumulative emission at indicated timepoint [ppb], N2O, 24 h ([1]; Sint-Laureins soil): 498 ppb
Cumulative emission at indicated timepoint [ppb], N2O, 48 h ([1]; Sint-Laureins soil): 1074 ppb
Cumulative emission at indicated timepoint [ppb], N2O, 72 h ([1]; Sint-Laureins soil): 1562 ppb
Cumulative emission at indicated timepoint [ppb], N2O, 99 h ([1]; Sint-Laureins soil): 1703 ppb
Cumulative emission at indicated timepoint [ppb], NO, 4 h ([1]; Sint-Laureins soil): 81 ppb
Cumulative emission at indicated timepoint [ppb], NO, 24 h ([1]; Sint-Laureins soil): 201 ppb
Cumulative emission at indicated timepoint [ppb], NO, 48 h ([1]; Sint-Laureins soil): 371 ppb
Cumulative emission at indicated timepoint [ppb], NO, 72 h ([1]; Sint-Laureins soil): 547 ppb
Cumulative emission at indicated timepoint [ppb], NO, 99 h ([1]; Sint-Laureins soil): 600 ppb
inhibition at 6.25 µM [2]: 57.3%
